Eight compounds from ChEMBL document CHEMBL5291721, “A preclinical secondary pharmacology resource illuminates target-adverse drug reaction associations of marketed drugs” (Nat Commun, 2023) can be followed below.

Among the targets are D(1A) dopamine receptor (Homo sapiens, UniProt P21728); Histamine H3 receptor (Homo sapiens, UniProt Q9Y5N1); Mu-type opioid receptor (Homo sapiens, UniProt P35372).
The target of experiment [1] is T1, Alpha-1A adrenergic receptor (Homo sapiens, UniProt P35348).
T1 sequence (P35348 whole entry): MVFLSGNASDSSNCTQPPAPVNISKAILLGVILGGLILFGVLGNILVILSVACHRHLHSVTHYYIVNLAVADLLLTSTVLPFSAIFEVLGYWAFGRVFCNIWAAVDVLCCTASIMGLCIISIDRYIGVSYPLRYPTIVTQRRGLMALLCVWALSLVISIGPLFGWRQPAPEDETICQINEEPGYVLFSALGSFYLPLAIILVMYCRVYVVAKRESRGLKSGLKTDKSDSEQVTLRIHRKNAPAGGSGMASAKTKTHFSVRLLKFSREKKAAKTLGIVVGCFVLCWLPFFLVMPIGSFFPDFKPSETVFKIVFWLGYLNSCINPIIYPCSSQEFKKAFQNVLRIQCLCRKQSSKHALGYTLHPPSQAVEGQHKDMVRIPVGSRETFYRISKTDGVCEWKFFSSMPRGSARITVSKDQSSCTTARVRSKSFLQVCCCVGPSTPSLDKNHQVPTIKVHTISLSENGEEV
The format is functional, cell-based.

Experiment [2] addresses T1, Alpha-1A adrenergic receptor. The format is functional, cell-based. The source holds these as a separate data set.
In experiment [3] the target is T2, Muscarinic acetylcholine receptor M2 (Homo sapiens, UniProt P08172).
T2 sequence (P08172 whole entry): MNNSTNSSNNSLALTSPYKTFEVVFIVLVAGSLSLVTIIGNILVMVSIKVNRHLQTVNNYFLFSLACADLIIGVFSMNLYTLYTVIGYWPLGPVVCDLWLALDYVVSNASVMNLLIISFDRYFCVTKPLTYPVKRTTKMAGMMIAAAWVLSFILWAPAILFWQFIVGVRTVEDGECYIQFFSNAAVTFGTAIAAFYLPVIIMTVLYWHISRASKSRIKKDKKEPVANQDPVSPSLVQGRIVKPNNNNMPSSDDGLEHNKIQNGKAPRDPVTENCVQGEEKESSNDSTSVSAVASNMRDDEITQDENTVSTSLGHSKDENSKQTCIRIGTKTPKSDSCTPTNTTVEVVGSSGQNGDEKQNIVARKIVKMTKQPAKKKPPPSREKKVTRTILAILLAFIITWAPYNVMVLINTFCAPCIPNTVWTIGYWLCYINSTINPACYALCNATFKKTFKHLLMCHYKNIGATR

For experiment [4], the target named is 3',5'-cyclic-AMP phosphodiesterase 4A (Homo sapiens, UniProt P27815). In kind it is functional.
Sequence of 3',5'-cyclic-AMP phosphodiesterase 4A (P27815 whole entry): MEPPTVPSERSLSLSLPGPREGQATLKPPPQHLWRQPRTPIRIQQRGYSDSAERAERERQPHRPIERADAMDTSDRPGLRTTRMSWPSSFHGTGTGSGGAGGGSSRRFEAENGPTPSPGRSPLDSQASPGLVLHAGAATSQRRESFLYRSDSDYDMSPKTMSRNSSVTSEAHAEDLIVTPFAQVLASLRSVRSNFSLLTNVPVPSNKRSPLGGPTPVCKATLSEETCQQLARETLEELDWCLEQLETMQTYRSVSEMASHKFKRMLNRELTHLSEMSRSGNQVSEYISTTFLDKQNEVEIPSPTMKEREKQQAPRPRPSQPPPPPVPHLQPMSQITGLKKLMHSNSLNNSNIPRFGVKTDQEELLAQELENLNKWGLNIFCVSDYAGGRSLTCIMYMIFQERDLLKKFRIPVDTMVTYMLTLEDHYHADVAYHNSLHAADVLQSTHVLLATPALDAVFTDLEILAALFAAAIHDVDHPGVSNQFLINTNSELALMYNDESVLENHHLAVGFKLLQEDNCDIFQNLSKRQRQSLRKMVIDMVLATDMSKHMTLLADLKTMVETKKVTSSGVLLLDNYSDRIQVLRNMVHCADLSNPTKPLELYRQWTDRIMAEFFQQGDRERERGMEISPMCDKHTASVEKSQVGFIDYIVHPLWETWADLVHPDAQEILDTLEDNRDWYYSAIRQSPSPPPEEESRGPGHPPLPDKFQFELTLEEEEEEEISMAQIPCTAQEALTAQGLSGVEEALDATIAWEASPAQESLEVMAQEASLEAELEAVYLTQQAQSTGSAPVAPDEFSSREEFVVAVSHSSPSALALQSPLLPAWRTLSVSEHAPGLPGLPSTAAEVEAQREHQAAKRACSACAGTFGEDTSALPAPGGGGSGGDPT
The target of the next experiment is T3, Progesterone receptor (Homo sapiens, UniProt P06401).
T3 sequence (P06401 whole entry): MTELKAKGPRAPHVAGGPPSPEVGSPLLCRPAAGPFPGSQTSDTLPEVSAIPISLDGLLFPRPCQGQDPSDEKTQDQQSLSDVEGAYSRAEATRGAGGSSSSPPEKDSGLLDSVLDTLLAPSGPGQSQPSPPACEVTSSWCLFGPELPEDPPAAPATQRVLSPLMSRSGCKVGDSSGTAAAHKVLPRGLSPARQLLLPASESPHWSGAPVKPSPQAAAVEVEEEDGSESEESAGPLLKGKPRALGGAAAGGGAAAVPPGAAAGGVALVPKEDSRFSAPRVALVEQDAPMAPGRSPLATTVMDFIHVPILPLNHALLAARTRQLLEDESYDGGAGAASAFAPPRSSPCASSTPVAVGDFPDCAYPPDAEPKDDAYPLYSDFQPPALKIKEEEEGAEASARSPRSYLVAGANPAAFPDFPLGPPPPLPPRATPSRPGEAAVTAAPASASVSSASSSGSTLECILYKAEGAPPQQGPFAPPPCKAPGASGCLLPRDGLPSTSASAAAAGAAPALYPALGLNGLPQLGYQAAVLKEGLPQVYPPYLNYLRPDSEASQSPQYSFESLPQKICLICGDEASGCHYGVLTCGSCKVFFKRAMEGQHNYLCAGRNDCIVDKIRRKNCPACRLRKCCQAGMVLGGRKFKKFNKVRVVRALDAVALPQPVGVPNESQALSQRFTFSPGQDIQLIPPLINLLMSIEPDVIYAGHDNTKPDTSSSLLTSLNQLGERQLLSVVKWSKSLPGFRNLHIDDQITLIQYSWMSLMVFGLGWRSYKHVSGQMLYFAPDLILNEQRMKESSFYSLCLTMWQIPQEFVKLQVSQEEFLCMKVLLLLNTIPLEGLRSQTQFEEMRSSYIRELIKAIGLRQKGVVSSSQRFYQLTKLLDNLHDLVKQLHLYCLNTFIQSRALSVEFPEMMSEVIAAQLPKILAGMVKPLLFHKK

Experiment [5] addresses Prostaglandin G/H synthase 1 (Homo sapiens, UniProt P23219). The format is functional.
A further experiment deals with T4, Thromboxane A2 receptor (Homo sapiens, UniProt P21731).
T4 sequence (P21731 whole entry): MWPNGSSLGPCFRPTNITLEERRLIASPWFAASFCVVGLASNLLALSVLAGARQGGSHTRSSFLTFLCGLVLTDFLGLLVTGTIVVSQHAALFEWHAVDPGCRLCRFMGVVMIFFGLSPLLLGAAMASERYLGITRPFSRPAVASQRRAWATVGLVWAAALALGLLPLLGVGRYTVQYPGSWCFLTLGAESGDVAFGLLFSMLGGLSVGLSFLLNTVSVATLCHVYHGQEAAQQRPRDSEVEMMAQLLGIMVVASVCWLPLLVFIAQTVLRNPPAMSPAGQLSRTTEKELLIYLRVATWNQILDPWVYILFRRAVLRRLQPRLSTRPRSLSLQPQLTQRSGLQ
In kind it is functional, cell-based.
Note: assay procedure not described here.

Sequence of D(1A) dopamine receptor (P21728 whole entry): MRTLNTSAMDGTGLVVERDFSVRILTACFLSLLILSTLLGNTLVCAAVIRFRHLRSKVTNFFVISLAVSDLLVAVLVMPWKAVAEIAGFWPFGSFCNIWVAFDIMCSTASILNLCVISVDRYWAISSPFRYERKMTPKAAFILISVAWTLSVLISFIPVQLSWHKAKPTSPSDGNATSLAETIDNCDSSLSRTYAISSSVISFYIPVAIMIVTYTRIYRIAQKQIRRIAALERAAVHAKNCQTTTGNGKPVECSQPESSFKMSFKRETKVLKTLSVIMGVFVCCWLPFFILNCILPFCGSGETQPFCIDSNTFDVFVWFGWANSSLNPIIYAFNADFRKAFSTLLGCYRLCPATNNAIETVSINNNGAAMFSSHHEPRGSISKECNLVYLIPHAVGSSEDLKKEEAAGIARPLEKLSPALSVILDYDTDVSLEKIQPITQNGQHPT
Sequence of Mu-type opioid receptor (P35372 whole entry): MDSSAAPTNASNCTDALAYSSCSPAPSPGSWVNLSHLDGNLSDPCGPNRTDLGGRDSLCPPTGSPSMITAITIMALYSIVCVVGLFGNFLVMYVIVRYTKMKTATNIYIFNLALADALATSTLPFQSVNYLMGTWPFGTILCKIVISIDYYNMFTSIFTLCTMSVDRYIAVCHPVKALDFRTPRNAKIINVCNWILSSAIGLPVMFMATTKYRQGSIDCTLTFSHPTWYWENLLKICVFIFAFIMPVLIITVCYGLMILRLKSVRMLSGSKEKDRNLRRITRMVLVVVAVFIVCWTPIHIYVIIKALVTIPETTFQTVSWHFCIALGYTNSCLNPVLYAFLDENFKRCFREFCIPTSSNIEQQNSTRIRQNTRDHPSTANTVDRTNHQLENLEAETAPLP
Sequence of Prostaglandin G/H synthase 1 (P23219 whole entry): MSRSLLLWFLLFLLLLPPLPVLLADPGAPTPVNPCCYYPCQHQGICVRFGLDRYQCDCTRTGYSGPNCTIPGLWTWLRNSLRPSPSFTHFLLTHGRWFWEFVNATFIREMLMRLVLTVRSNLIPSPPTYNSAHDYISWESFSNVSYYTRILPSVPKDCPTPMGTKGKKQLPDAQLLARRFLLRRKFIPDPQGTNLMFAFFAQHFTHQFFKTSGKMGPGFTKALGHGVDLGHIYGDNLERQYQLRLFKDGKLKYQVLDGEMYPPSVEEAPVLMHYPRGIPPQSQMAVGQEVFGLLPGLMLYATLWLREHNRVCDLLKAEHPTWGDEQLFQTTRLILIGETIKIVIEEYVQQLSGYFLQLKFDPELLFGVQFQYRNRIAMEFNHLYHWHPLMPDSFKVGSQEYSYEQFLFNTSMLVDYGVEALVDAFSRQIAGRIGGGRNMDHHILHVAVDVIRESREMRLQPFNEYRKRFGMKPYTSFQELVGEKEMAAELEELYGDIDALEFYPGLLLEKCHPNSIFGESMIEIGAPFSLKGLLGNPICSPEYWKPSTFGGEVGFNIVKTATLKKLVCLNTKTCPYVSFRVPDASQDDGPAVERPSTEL
Sequence of Histamine H3 receptor (Q9Y5N1 whole entry): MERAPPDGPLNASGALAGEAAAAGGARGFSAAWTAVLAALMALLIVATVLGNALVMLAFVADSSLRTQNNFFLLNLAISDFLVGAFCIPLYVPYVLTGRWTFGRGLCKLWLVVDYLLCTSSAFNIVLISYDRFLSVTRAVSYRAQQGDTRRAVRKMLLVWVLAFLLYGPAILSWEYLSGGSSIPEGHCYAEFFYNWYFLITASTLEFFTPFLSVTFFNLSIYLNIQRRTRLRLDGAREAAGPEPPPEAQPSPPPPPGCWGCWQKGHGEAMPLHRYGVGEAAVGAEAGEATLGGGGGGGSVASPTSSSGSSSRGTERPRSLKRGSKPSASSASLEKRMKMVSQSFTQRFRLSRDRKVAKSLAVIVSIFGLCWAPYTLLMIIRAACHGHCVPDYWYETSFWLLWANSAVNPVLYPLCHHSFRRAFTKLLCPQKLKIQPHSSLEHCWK

For the compound `Cc1ccc(Cl)c(Nc2ccccc2C(=O)O)c1Cl` [MECLOFENAMIC ACID], the AC50 (in experiment [1]; in experiment [2]; in experiment [3]; on D(1A) dopamine receptor; on Histamine H3 receptor; on Mu-type opioid receptor) was more than 30 µM throughout. Also, the AC50 in experiment [4] is 25.5 µM; at Progesterone receptor, more than 30 µM; in experiment [5], 0.0171 µM; on Thromboxane A2 receptor, more than 30 µM.
For `CC(O)(CC(=O)O)CC(=O)O` [MEGLUTOL], the AC50 was more than 30 µM in experiment [1]; 18 µM in experiment [2]; more than 30 µM in experiment [3]; more than 30 µM at D(1A) dopamine receptor; more than 30 µM at Histamine H3 receptor; more than 30 µM on Mu-type opioid receptor. The AC50 (in experiment [4]; on Progesterone receptor; in [5]; at Thromboxane A2 receptor) was more than 30 µM each time.
For the compound `CC(C)=CCC/C(C)=C/CC/C(C)=C/CC/C(C)=C/CC1=C(C)C(=O)c2ccccc2C1=O` [MENATETRENONE], the AC50 (in experiment [1]; in [2]; in experiment [3]; on D(1A) dopamine receptor; at Histamine H3 receptor; on Mu-type opioid receptor) was more than 30 µM throughout. Besides, the AC50 in [4] is 8.53 µM; on Progesterone receptor, 13.5 µM; in [5], 0.78 µM; at Thromboxane A2 receptor, more than 30 µM.
With `CN1CCCC(CC2c3ccccc3Sc3ccccc32)C1` (stereo not given) [METHIXENE], the AC50 is more than 30 µM in experiment [1]; 0.586 µM in [2]; 0.0054 µM in [3]; 2.03 µM on D(1A) dopamine receptor; 20.3 µM at Histamine H3 receptor; 13.9 µM at Mu-type opioid receptor. In addition, the AC50 is more than 30 µM in [4], more than 30 µM on Progesterone receptor, more than 30 µM in [5] and 25 µM at Thromboxane A2 receptor.
On to `CC(=O)OCC(=O)[C@@]1(O)CC[C@H]2[C@@H]3C[C@H](C)C4=CC(=O)C=C[C@]4(C)[C@H]3[C@@H](O)C[C@@]21C` [METHYLPREDNISOLONE ACETATE], for which the AC50 (in experiment [1]; in experiment [2]; in experiment [3]; at D(1A) dopamine receptor; on Histamine H3 receptor; on Mu-type opioid receptor) was more than 30 µM throughout. The AC50 in experiment [4] was more than 30 µM; on Progesterone receptor, 3.03 µM; in [5], more than 30 µM; on Thromboxane A2 receptor it was more than 30 µM.
`COCC(=O)O[C@]1(CCN(C)CCCc2nc3ccccc3[nH]2)CCc2cc(F)ccc2[C@@H]1C(C)C` [MIBEFRADIL]: the AC50 in experiment [1] was 25.9 µM; in [2], 1.58 µM; in [3] it was 3.85 µM; at D(1A) dopamine receptor, 10.1 µM; on Histamine H3 receptor, more than 30 µM; at Mu-type opioid receptor, 0.979 µM. The AC50 was more than 30 µM in experiment [4], more than 30 µM on Progesterone receptor, more than 30 µM in [5] and 21.9 µM on Thromboxane A2 receptor.
Consider `Oc1ccc(OCc2ccccc2)cc1` [MONOBENZONE], for which the AC50 (in [1]; in experiment [2]; in experiment [3]; on D(1A) dopamine receptor; at Histamine H3 receptor; at Mu-type opioid receptor) was more than 30 µM throughout. Moreover, the AC50 in [4] was more than 30 µM; at Progesterone receptor it was more than 30 µM; in [5] it was 7.88 µM; at Thromboxane A2 receptor, more than 30 µM.
`NC(=O)N/N=C/c1ccc([N+](=O)[O-])o1` [NITROFURAZONE]: the AC50 (in experiment [1]; in experiment [2]; in experiment [3]; on D(1A) dopamine receptor; on Histamine H3 receptor; on Mu-type opioid receptor) was more than 30 µM throughout. The AC50 (in experiment [4]; on Progesterone receptor; in experiment [5]; at Thromboxane A2 receptor) was more than 30 µM throughout.

In general, AC50 refers to the concentration giving half of the maximal activity seen. Lower therefore signals activity at low concentration.
